Molecules are shown by their SMILES.

The target of test [1] is salicylic acid binding protein. In words: Scatchard analysis of [14C] salicylic acid binding. To be noted: tobacco SABP; [14C] salicylic acid 2 to 70 μM. The method, then:
Kd is defined herein as the concentration of salicylic acid needed to occupy 50% of the binding sites on the salicylic acid binding protein when the binding process reaches its equilibrium. Thus, a smaller value of Kd indicates a stronger interaction between salicylic acid and salicylic acid binding protein and vice versa. Kd is determined by measuring the amounts of salicylic acid bound to salicylic acid binding-protein at various concentrations of salicylic acid and then plotting the ratio of bound to free, salicylic acid concentrations versus bound salicylic acid concentrations to give a linear plot with a slope of -1/Kd. […]
A key element during the characterization and the purification process is a simple, inexpensive, sensitive and reliable method for determining the salicylic acid binding activity. […] (specifically radioactivity 55 Ci/mol; purchased from New England Nuclear), 150 μl of proteins binding sample was loaded onto the tube column, which was then rapidly centrifuged for 2 minutes at full speed and the solution of proteins and bound [^14 C-salicylic acid] that was excluded from the gel was collected into another tube that had been placed under the tube column during the centrifugation. […]

A further test concerns catalase. In words: Catalase activity of crude extracts. The class given is biochemical. The source says:
In the presence of SA, the catalase activity of the highly purified SABP was inhibited by 80% (Table 6). A similar level of inhibition of catalase activity by SA (^- 70%) was also observed with crude extracts; inhibition appeared to be reversible since the catalase activity could be largely recovered by extensive dialysis. To assess the functional relevance of catalase inhibition by SA, several SA analogues, with or without biological activity in inducing plant PR genes and disease resistance, were compared for their ability to inhibit the catalase activity of SABP (Table 6).

For the next test, the system named is H2 O2. In words: Abundance of H2O2 in treated tobacco leaves. The following applies: FIG. 11. The class given is in vivo. The source says:
The abundance of H2 O2 increased in SA- or 3AT-treated tobacco leaves by 50-60% over the control levels observed in water-treated leaves. […] Thus, elevated levels of H2 O2, and in turn, enhanced oxidative stress in vivo, were consistent with inhibition of catalase activity by SA observed in vitro.

The test system of a further test is ascorbate peroxidase. In words: Ascorbate peroxidase activity in tobacco leaf extracts. The class given is biochemical, Nicotiana tabacum cv. Xanthi nc. The procedure, abridged: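 Soluble extracts from leaves of 6–8-week Nicotiana tabacum cv. Xanthi nc, desalted into 50 mM potassium phosphate pH 7 with 100 μM ascorbate, were assayed (30–50 μg protein) with or without 100 or 1000 μM SA or INA. Ascorbate oxidation followed as A290 decrease; means of three replicates.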

Test [2] relates to catalases from non-plant sources. In words: Inhibition of non-plant catalases by salicylic acid. The following applies: catalases from fungi and animals. The class given is biochemical. The text has this:
Genes or cDNA copies for several of these catalases have been cloned (e.g. Scandalios, J. G. et al., Proc. Natl. Acad. Sci. USA, 77 (1980) 5360-5364; Bell, G. I. et al., Nucleic Acids Res., 14, (1986), 5561-5562; Hartig, A. et al., Eur. J. Biochem, 160, (1986) 487-490). A gene encoding one of these catalases can be introduced and expressed in a plant in the sense orientation using appropriate regulatory sequences (e.g. CaMV 35S promoter and nopaline synthase cleavage and polyadenylation signal) and vectors (e.g. PCGN 1540 or pCIB3064) as described in Example 25.

A further test has as its system SABP. More on the design: concentration or dose not given beside the values. The following applies: Table 6; previously published data (Chen et al. 1993); cited from earlier work.

As a reminder, the Kd is the equilibrium constant for the complex coming apart. Broadly, the Inhibition is the change of the read-out against control, counted positive when it falls. As to `O=C(O)c1ccccc1O` [salicylic acid, 2-hydroxybenzoic acid], binding in test [1] was characterised by a dissociation constant (Kd) of 14 ± 5 µM. In addition, the “Inhibition of catalase activity” value in the test with catalase (crude extracts) is roughly 70%. Moreover, in the test on catalase (extensive dialysis), the “Reversibility of catalase inhibition” value is recorded as “reversible”. Also, in the test with H2 O2, the “Increase in abundance of H2O2 over water-treated leaves” value was 50-60%. In addition, the “% Inhibition of ascorbate peroxidase” value in the test with ascorbate peroxidase (200 μM compound, corrected for quenching of auto oxidation) was 83 ± 9%. Further, the IC50 at ascorbate peroxidase (750 μM ascorbate, 25 to 500 μM compound, FIG. 17, read-out: Concentration necessary for 50% inhibition (I50) of ascorbate peroxidase) is roughly 80 µM. For the same molecule, in the test with ascorbate peroxidase (APX, 100 μM compound), the Activity is listed as 2.0 ± 0.2 μmols of oxidized substrate mi and the Inhibition amounted to 59%. Moreover, in the test on ascorbate peroxidase (APX, 1,000 μM compound), the Activity is given as 0.24 ± 0.1 μmols of oxidized substrate mi and the Inhibition amounted to 95%. Also, in test [2], the “Sensitivity of non-plant catalases to inhibition” value is “insensitive to inhibition”. In addition, the “Inhibition (%) [14C]SA binding” value in the test on SABP is given as 89%.

These data come from patent publication US5989846A, “Assays to identify inducers of plant defense resistance” (Rutgers, The State University of New Jersey, priority 1995, dated 1999).
